{
  "source": "patent EP1147767A1",
  "about": "(J.B. Chemicals & Pharmaceuticals Ltd., priority 2000, dated 2001)",
  "origin": "cited, not measured here",
  "key": {"[1]": {"settings": "200 mg twice daily; Pierleoni et al. 1993"}, "[2]": {"settings": "200 mg twice daily, granular formulation; versus naproxen 500 mg twice daily; Toscani et al. 1993"}, "[3]": {"settings": "animal model; comparison with other NSAIDs"}, "[4]": {"settings": "200 mg twice daily, rectally; Coscarelli et al. 1993"}, "[5]": {"settings": "200mg 3 times daily, rectally; Ramella et al. 1993"}, "[6]": {"settings": "200 mg/day; respiratory tract infections, ENT disorders, dysmenorrhoea, dental surgery, urogenital tract disorders, musculoskeletal injuries"}, "[7]": {"settings": "rats; comparison with other drugs"}},
  "data": [
    {"compound": "CS(=O)(=O)Nc1ccc([N+](=O)[O-])cc1Oc1ccccc1", "note": "[Nimesulide, 4'-Nitro-2'-phenoxymethanesulphonanilide]", "values": [
      {"measurement": "relief", "setting": "[1]", "result": "gave relief"},
      {"measurement": "analgesic efficacy (pain)", "setting": "[2]", "result": "similarly reduced pain with naproxen 500 mg twice daily"},
      {"measurement": "ulcerogenic", "setting": "[3]", "result": "less ulcerogenic than aspirin, indomethacin, naproxen, piroxicam and ibuprofen"},
      {"measurement": "relief of pain", "setting": "[4]", "result": "gave relief in the pain associated with postoperative inflammatory complications of ear, nose and throat surgery"},
      {"measurement": "adverse reaction", "setting": "[5]", "result": "no adverse reaction"},
      {"measurement": "pain, oedema, hyperaemia and fever", "setting": "[5]", "result": "significantly less pain, oedema and hyperaemia and resolution of mild fever"},
      {"measurement": "reducing clinical symptoms", "setting": "[6]", "result": "generally more effective than the usual therapeutic doses of naproxen, ibuprofen, ketoprofen mefenamic acid and suprofen"},
      {"measurement": "antipyretic potency", "setting": "[7]", "result": "superior antipyretic potency to indomethacin, ibuprofen, aspirin and paracetamol"}
    ]}
  ]
}
